pIC50: −log10 of the molar value.
Tests used:
[1] = target: T1, JMJD2C (Homo sapiens, UniProt Q9H3R0); assay: JMJD2C in vitro enzyme inhibition assay (TR-FRET); format: biochemical
T1 construct: purchased BPS Bioscience 50105
T1 sequence (Q9H3R0 2-372): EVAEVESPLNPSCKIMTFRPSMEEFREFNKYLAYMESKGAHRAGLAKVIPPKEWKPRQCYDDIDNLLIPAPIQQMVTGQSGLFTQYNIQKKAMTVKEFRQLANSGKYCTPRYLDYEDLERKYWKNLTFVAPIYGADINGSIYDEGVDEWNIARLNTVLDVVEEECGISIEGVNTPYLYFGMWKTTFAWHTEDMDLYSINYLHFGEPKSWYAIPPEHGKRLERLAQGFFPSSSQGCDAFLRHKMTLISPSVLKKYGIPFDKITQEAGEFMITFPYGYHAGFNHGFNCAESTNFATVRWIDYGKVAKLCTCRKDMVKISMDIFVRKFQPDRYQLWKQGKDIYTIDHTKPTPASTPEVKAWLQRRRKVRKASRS
Method in brief: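 Baculovirus-expressed human JMJD2C (AA 2-372) at 0.3 nM demethylated 300 nM biotin-H3K9me3 peptide with 2 μM alpha-ketoglutarate in HEPES pH 7.3 containing ascorbate and Fe(II), 30 min at room temperature. EDTA-stopped product was read by TR-FRET with Eu-anti-H3K9me2 and streptavidin-APC; 665/615 ratios from 11-point dilutions gave IC50.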

[2] = system: KDM5A/B; assay: In vitro cell-based assay: immuno-blot quantification of tri-methyl H3K4 in ZR-75-1 breast cancer cells; settings: 72 hours, tri-methyl H3K4 level relative to GAPDH, percent of DMSO, read-out: Cellular IC50
Method in brief: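 ZR-75-1 breast cancer cells treated 72 h with 11-point compound dilutions (1250 μM to 10 nM). H3K4me3 quantified by infrared immunoblot densitometry, normalized to GAPDH and expressed as percent of DMSO control; relative IC50 from curve fit.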

Structure (SMILES)	pIC50 [1]	pIC50 [2]
Oc1nc(Oc2cnn([C@H]3CCN(c4ccccc4F)C3)c2)nc2cnccc12 [Example 147, 2-({1-[(3S)-1-(2-fluorophenyl)pyrrolidin-3-yl]-1H-pyrazol-4-yl}oxy)pyrido[3,4-d]pyrimidin-4-ol]	≥ 7.00	5.00 to 6.00
Oc1nc(Oc2cnn([C@H]3CCN(c4ccc(Cl)cc4)C3)c2)nc2cnccc12 [Example 148, 2-({1-[(3S)-1-(4-chlorophenyl)pyrrolidin-3-yl]-1H-pyrazol-4-yl}oxy)pyrido[3,4-d]pyrimidin-4-ol]	≥ 7.00	5.00 to 6.00
CCS(=O)(=O)N1CCC[C@@H](n2cc(Oc3nc(O)c4ccncc4n3)cn2)C1 [Example 150, 2-({1-[(3R)-1-(ethanesulfonyl)piperidin-3-yl]-1H-pyrazol-4-yl}oxy)pyrido[3,4-d]pyrimidin-4-ol]	≥ 7.00	6.00 to 7.00
O=C(c1ccccc1)N1CCC[C@@H](n2cc(Oc3nc(O)c4ccncc4n3)cn2)C1 [Example 157, 2-({1-[(3R)-1-benzoylpiperidin-3-yl]-1H-pyrazol-4-yl}oxy)pyrido[3,4-d]pyrimidin-4-ol]	≥ 7.00	5.00 to 6.00
Oc1nc(Oc2cnn([C@@H]3CCCN(Cc4ccccc4)C3)c2)nc2cnccc12 [Example 158, 2-({1-[(3R)-1-benzylpiperidin-3-yl]-1H-pyrazol-4-yl}oxy)pyrido[3,4-d]pyrimidin-4-ol]	≥ 7.00	6.00 to 7.00
Oc1nc(Oc2cnn([C@@H]3CCCN(c4ccc(F)cc4)C3)c2)nc2cnccc12 [Example 159, 2-({1-[(3R)-1-(4-fluorophenyl)piperidin-3-yl]-1H-pyrazol-4-yl}oxy)pyrido[3,4-d]pyrimidin-4-ol]	≥ 7.00	5.00 to 6.00
O=S(=O)(C1CC1)N1CCC[C@H](n2cc(Oc3nc(O)c4ccncc4n3)cn2)C1 [Example 162, 2-({1-[(3S)-1-(cyclopropanesulfonyl)piperidin-3-yl]-1H-pyrazol-4-yl}oxy)pyrido[3,4-d]pyrimidin-4-ol]	≥ 7.00	6.00 to 7.00
O=S(=O)(c1ccccc1)N1CCC[C@H](n2cc(Oc3nc(O)c4ccncc4n3)cn2)C1 [Example 163, 2-({1-[(3S)-1-(benzenesulfonyl)piperidin-3-yl]-1H-pyrazol-4-yl}oxy)pyrido[3,4-d]pyrimidin-4-ol]	≥ 7.00	6.00 to 7.00

Results, then the compound that gave them:

pIC50 [1]	pIC50 [2]	Structure (SMILES)
≥ 7.00	5.00 to 6.00	CC(=O)N1CCC[C@@H](n2cc(Oc3nc(O)c4ccncc4n3)cn2)C1 [Example 153, 1-[(3R)-3-[4-({4-hydroxypyrido[3,4-d]pyrimidin-2-yl}oxy)-1H-pyrazol-1-yl]piperidin-1-yl]ethan-1-one]
≥ 7.00	< 5.00	N#CCC(=O)N1CCC[C@@H](n2cc(Oc3nc(O)c4ccncc4n3)cn2)C1 [Example 154, 3-[(3R)-3-[4-({4-hydroxypyrido[3,4-d]pyrimidin-2-yl}oxy)-1H-pyrazol-1-yl]piperidin-1-yl]-3-oxopropanenitrile]
≥ 7.00	5.00 to 6.00	O=C(CO)N1CC[C@H](n2cc(Oc3nc(O)c4ccncc4n3)cn2)C1 [Example 155, 2-hydroxy-1-[(3S)-3-[4-({4-hydroxypyrido[3,4-d]pyrimidin-2-yl}oxy)-1H-pyrazol-1-yl]pyrrolidin-1-yl]ethan-1-one]
≥ 7.00	< 5.00	O=C(C1CC1)N1CCC[C@@H](n2cc(Oc3nc(O)c4ccncc4n3)cn2)C1 [Example 156, 2-({1-[(3R)-1-cyclopropanecarbonylpiperidin-3-yl]-1H-pyrazol-4-yl}oxy)pyrido[3,4-d]pyrimidin-4-ol]
≥ 7.00	6.00 to 7.00	CCS(=O)(=O)N1CCC[C@H](n2cc(Oc3nc(O)c4ccncc4n3)cn2)C1 [Example 161, 2-({1-[(3S)-1-(ethanesulfonyl)piperidin-3-yl]-1H-pyrazol-4-yl}oxy)pyrido[3,4-d]pyrimidin-4-ol]
≥ 7.00	5.00 to 6.00	CC(=O)N1CCC[C@H](n2cc(Oc3nc(O)c4ccncc4n3)cn2)C1 [Example 164, 1-[(3S)-3-[4-({4-hydroxypyrido[3,4-d]pyrimidin-2-yl}oxy)-1H-pyrazol-1-yl]piperidin-1-yl]ethan-1-one]

— patent US10526327B2, “Histone demethylase inhibitors” (CELGENE QUANTICEL RESEARCH, INC., priority 2013, dated 2020)
